Measurements reported in patent publication US10363251B2, “(+)-morphinans as antagonists of toll-like receptor 9 and therapeutic uses thereof” (Mallinckrodt LLC, priority 2009, dated 2019).

What was measured:
Assay type in all cases: cell-based
[1] = target: T1, TLR2 (Homo sapiens, UniProt O60603); experiment: TLR2 antagonist screening, NF-κB-inducible SEAP reporter in HEK293 cells; details: for Average % Inhibition at TLR2: 10 μM, stimulated with HKLM at 10^8 cell/ml
T1 construct: expressed in transfected cells; host or cells: HEK293
Procedure: (§1) Stimulation of TLRs 2, 3, 4, 5, 7, 8, and 9 was determined by assessing activation of the transcription factor NF-κB in HEK293 cells that were engineered to express the corresponding receptors. Assessment of TLR stimulation was based on the use of an NF-κB-inducible secreted alkaline phosphatase (SEAP) reporter system in which the SEAP reporter was under the control of a promoter inducible by NF-κB. Thus, the degree of activation of TLRs can be indirectly quantified spectrophotometrically by measuring the amount of the SEAP reporter that is produced.
(§2) The appropriate TLR-expressing cells were plated in Growth Medium in a 96-well plate (25,000-50,000 cells/well). The cells were stimulated with the appropriate positive control ligand or no ligand was added (negative control). The positive control ligands were: HKLM was used to stimulate TLR2; poly(I:C) was used to stimulate TLR3; LPS was used to stimulate TLR4; Flagellin was used to stimulate TLR5; CL097 was used to stimulate TLR7; CL075 was used to stimulate TLR8; CpG oligodeoxynucleotide (ODN) 2006 was used to stimulate TLR9. To test whether (+)-morphinans could block that activation of the TLR, the cells were pretreated with an antagonist for 30 minutes prior to addition of the positive control ligand. For this, 20 μL of the stock test compound solution (100 μM in H2O) was added to give a total volume of 200 μL. […] After a 16-20 hr incubation period at 37° C. in a CO2 incubator, 20 μL of the cell culture supernatant was added to 180 μL of QUANTI-Blue™ Media (InvivoGen, San Diego, Calif.), and the resulting solutions were incubated at 37° C. for an additional 1-3 hours according to the manufacturer's instructions. The OD's of the samples were then read at 650 nm on a Beckman Coulter AD 340C Absorbance Detector.

[2] = target: T2, TLR8 (Homo sapiens, UniProt Q9NR97); experiment: TLR8 antagonist screening, NF-κB-inducible SEAP reporter in HEK293 cells; details: for Average % Inhibition at TLR8: 10 μM, stimulated with CL075 at 1 μg/ml
T2 construct: expressed in transfected cells; host or cells: HEK293
T2 sequence (Q9NR97 27-1041): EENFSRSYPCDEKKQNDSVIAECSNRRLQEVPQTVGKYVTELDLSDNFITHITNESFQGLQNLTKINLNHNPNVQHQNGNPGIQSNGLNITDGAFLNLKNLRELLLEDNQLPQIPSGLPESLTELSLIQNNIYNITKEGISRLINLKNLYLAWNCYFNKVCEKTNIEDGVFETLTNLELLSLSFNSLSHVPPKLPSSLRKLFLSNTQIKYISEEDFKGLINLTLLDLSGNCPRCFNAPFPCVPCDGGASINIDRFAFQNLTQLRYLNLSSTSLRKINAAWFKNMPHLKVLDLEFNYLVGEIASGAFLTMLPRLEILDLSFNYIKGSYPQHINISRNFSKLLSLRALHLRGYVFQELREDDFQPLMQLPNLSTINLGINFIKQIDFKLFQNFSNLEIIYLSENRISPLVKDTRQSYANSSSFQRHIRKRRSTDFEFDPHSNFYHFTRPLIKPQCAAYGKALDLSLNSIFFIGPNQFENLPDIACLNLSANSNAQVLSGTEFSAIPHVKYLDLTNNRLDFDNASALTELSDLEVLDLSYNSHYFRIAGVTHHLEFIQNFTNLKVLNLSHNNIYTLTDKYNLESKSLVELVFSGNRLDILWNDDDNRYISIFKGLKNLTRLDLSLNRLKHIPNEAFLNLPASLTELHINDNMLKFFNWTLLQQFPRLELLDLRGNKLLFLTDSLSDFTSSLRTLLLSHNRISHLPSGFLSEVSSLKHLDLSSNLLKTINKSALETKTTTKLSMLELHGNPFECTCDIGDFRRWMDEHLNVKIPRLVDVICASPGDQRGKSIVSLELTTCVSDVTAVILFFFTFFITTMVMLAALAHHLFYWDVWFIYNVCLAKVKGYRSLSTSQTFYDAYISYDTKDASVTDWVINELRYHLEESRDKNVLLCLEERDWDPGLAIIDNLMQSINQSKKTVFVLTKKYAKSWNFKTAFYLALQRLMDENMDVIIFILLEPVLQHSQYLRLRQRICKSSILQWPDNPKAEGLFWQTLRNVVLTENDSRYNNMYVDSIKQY
Procedure: as §1
as §2, with “ligand.” for “ligand. For this, 20 μL of the stock test compound solution (100 μM in H2O) was added to give a total volume of 200 μL.”

[3] = target: T3, TLR3 (Homo sapiens, UniProt O15455); experiment: TLR3 antagonist screening, NF-κB-inducible SEAP reporter in HEK293 cells; details: for Average % Inhibition at TLR3: 10 μM, stimulated with poly(I:C) at 1 μg/ml
T3 construct: expressed in transfected cells; host or cells: HEK293
Procedure: as §1, §2

T1 sequence (O60603 21-784, species assumed): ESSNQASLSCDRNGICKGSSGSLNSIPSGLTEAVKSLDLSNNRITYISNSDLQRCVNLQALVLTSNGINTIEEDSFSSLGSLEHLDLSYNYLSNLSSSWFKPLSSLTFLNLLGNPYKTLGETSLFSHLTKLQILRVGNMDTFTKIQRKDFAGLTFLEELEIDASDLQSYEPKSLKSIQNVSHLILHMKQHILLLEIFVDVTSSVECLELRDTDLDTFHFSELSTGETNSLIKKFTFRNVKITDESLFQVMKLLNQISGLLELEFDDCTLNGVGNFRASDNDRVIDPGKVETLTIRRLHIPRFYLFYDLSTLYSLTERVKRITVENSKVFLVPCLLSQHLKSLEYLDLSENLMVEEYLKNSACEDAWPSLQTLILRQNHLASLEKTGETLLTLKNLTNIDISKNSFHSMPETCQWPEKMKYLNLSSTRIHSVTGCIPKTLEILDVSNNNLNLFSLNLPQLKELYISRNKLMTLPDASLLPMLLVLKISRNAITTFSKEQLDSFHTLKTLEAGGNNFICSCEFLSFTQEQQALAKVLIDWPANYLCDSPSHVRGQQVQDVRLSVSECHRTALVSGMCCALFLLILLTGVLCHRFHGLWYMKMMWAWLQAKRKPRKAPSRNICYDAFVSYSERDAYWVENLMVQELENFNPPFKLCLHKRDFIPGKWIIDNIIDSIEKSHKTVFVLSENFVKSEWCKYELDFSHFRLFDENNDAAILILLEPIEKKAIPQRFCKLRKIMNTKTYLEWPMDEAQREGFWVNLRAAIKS
T3 sequence (O15455 24-904, species assumed): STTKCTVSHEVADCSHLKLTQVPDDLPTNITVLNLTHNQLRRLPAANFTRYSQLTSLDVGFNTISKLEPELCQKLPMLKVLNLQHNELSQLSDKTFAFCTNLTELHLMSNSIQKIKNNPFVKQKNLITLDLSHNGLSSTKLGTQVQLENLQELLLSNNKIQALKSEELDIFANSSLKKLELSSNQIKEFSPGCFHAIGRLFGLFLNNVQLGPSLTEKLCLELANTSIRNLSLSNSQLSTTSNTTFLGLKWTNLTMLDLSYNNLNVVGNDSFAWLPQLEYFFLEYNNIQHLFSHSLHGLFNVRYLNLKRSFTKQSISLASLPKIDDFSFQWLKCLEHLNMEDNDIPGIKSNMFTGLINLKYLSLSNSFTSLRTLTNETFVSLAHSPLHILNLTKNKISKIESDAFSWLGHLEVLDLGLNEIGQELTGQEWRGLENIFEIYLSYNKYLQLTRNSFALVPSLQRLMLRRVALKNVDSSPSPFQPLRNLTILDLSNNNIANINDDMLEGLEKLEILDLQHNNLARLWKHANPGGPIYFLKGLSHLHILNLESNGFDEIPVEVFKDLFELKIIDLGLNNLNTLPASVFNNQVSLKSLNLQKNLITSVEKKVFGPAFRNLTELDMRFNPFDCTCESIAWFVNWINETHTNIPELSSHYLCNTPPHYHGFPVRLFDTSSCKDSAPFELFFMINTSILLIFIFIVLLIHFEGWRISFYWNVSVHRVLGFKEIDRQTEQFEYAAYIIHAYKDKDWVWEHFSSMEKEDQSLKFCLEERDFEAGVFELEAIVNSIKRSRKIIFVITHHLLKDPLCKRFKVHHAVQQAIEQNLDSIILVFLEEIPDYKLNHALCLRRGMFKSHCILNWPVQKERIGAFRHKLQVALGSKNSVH

| Structure (SMILES) | Average % Inhibition at TLR2 [1] [%] | Average % Inhibition at TLR8 [2] [%] | Average % Inhibition at TLR3 [3] [%] | inhibition at 10 µM ([1]; HEK293, stimulated with HKLM at 10^8 cell/ml) [%] | inhibition at 10 µM ([2]; HEK293, stimulated with CL075 at 1 μg/ml) [%] | inhibition at 10 µM ([3]; HEK293, stimulated with poly(I:C) at 1 μg/ml) [%] |
| --- | --- | --- | --- | --- | --- | --- |
| COc1ccc2c(c1O)[C@@]13CCN(C)[C@@H](C2)[C@H]1CC(OC)C(=O)C3 (stereo partly drawn) [Dihydrosinomenine, dihydrosinomenine] | 27 | 21 | 40 | – | – | – |
| COC1=C[C@@H]2[C@@H]3Cc4ccc(OC)c(O)c4[C@]2(CCN3C)CC1=O [Sinomenine, sinomenine] | – | – | – | 30 | 20 | 28 |
| C=CCN1CC[C@]23c4c5ccc(O)c4O[C@H]2C(=O)CC[C@]3(O)[C@H]1C5 [(+)-Naloxone, (+)-naloxone] | 24 | 24 | 27 | – | – | – |
